SMILES strings stand for the structures. Where only a bound is given, the exact number is not on record here.

In general, LD50 refers to the dose expected to kill half of the subjects tested. Lower therefore signals greater toxicity.

One data set in a line: in vivo. The following applies: rat.
The next data set has as its system rats. The experiment in a line: Diuretic activity: urinary sodium excretion over 6 hours after oral administration. In kind it is in vivo, rat. Conditions: rat, sodium urinary excretion in 6 h vs controls (control = 100), read-out: Diuretic effect %; for response vs control in vivo at 20 mg/kg: dose 20 mg/kg oral; for response vs control in vivo at 10 mg/kg: dose 10 mg/kg oral. The method, then:
The first series of tests was carried out to rats orally administered with distilled water (25 ml/kg) containing the product under test, previously suspended in Tween 80 (1% v/v with respect to water). Urina of the 6 hours following the treatment was collected in order to measure the sodium concentration, by means of atomic absorption. The ratio of the meq/100 g of body weight of the treated animals to the corresponding ratio of the meq/100 g of body weight of the control animals (treated with the sole vehicle) was calculated, in order to determine the dose of the test compound doubling or trebling or anyway increasing the sodium excretion.

The subject of data set [1] is rat. The experiment in a line: Excreted urinary volumes after oral administration, with a second water load after 0-3 h. It counts as in vivo. As for the experimental part:
(§1) The compounds were administered by the oral route, under the same conditions as described in the previous test, but the animals, after the O-3 hours interval, were treated with further 25 ml/kg of distilled water, by intubation.

The subject of data set [2] is rat. Description: Excreted urinary electrolytes after oral administration, with a second water load after 0-3 h. In kind it is in vivo. As for the experimental part: as §1

Regarding `Cc1nc2n(c1C=NNC(=O)CN(C)C)CCS2` [Example 10], the LD50 in the data set “in vivo” (ip) and in the data set “in vivo” (po) was above 1000 mg/kg throughout.

Turning to `NCC(=O)NN=Cc1c(-c2ccccc2)nc2sccn12` [Example 14], in the data set “in vivo” (po), the LD50 is above 1000 mg/kg. Moreover, the response vs control in vivo at 20 mg/kg in the data set on rats was determined as 130%.

Regarding `Cc1ccc(-c2nc3n(c2C=NNC(=O)CN(C)C)CCS3)cc1` [Example 12], the LD50 in “in vivo” (ip) is around 600 mg/kg; in “in vivo” (po), around 800 mg/kg. For the same molecule, the response vs control in vivo at 20 mg/kg in the data set on rats worked out at 120%.

As for `CN(C)CC(=O)NN=Cc1c(-c2ccccc2)nc2sccn12` [Example 3], the LD50 in the data set “in vivo” (ip) and in “in vivo” (po) was around 600 mg/kg throughout. In the data set with rats (dose 5 mg/kg oral), the response vs control in vivo at 5 mg/kg was determined as 310%.

`CN(C)CC(=O)NN=Cc1c(-c2ccc(Cl)cc2)nc2n1CCS2` [Example 11]: the LD50 in the data set “in vivo” (ip) is around 600 mg/kg; in the data set “in vivo” (po), around 800 mg/kg. Moreover, the response vs control in vivo at 20 mg/kg in the data set with rats worked out at 230%.

Turning to `CN(C)CC(=O)NN=Cc1c(-c2ccccc2)nc2n1CCS2` [Example 9], the median lethal dose (LD50) is above 1000 mg/kg in the data set “in vivo” (ip) and above 3000 mg/kg in “in vivo” (po). Besides, in the data set with rats, the response vs control in vivo at 10 mg/kg was 230%.

For `Cc1cn2c(C=NNC(=O)CN(C)C)c(C)nc2s1` [Example 6, N,N-dimethylamino-acetyl-[[2-methyl-6-methyl-imidazo[2,1-a]thiazole-5-yl]methylene]-hydrazide], the 50% lethal dose (LD50) in “in vivo” (ip) was around 600 mg/kg; in the data set “in vivo” (po) it was around 1000 mg/kg. Besides, the response vs control in vivo at 10 mg/kg in the data set with rats stood at 180%.

Take `CN(C)CC(=O)NN=Cc1c(Cl)nc2sccn12` [Example 1]: the LD50 is around 250 mg/kg in the data set “in vivo” (ip) and around 1500 mg/kg in the data set “in vivo” (po). In addition, the response vs control in vivo at 20 mg/kg in the data set on rats was 120%.

On to `Cc1csc2nc(-c3ccccc3)c(C=NNC(=O)CN(C)C)n12` [Example 7], for which the LD50 in “in vivo” (ip) and in the data set “in vivo” (po) was above 3000 mg/kg each time. Further, the response vs control in vivo at 0.5 mg/kg in the data set with rats (dose 0.5 mg/kg oral) stood at 250%. Further, the “EXCRETED URINARY VOLUMES WITH RESPECT TO BODY WEIGHT” value turned out to be 0.0333 L/kg in the data set on rat [1] (2.5 mg/kg, 0-3 h); 0.0469 L/kg in the data set on rat [1] (2.5 mg/kg, 0-6 h); 0.0136 L/kg with rat [1] (2.5 mg/kg, 3-6 h); 0.0326 L/kg in the data set with rat [1] (10 mg/kg, 0-3 h); 0.0474 L/kg in the data set with rat [1] (10 mg/kg, 0-6 h); 0.0147 L/kg in the data set on rat [1] (10 mg/kg, 3-6 h). The “EXCRETED URINARY ELECTROLYTES WITH RESPECT TO BODY WEIGHT, Cl^-” value in the data set on rat [2] (10 mg/kg, 0-3 h) amounted to 2.55 mEq/kg; in the data set on rat [2] (10 mg/kg, 0-6 h) it was 2.57 mEq/kg; in the data set on rat [2] (10 mg/kg, 3-6 h) it was 0.025 mEq/kg; with rat [2] (head prints 10 mg/kg, 0-3 h), 1.53 mEq/kg; with rat [2] (head prints 10 mg/kg, 0-6 h) it was 1.53 mEq/kg; in the data set on rat [2] (head prints 10 mg/kg, 3-6 h), 0.0 mEq/kg. The “EXCRETED URINARY ELECTROLYTES WITH RESPECT TO BODY WEIGHT, K^+” value in the data set with rat [2] (10 mg/kg, 0-3 h) is on record as 1.04 mEq/kg; with rat [2] (10 mg/kg, 0-6 h) it was 1.29 mEq/kg; in the data set on rat [2] (10 mg/kg, 3-6 h), 0.25 mEq/kg; in the data set with rat [2] (head prints 10 mg/kg, 0-3 h) it was 0.93 mEq/kg; with rat [2] (head prints 10 mg/kg, 0-6 h) it was 1.26 mEq/kg; with rat [2] (head prints 10 mg/kg, 3-6 h) it was 0.33 mEq/kg. Besides, the “EXCRETED URINARY ELECTROLYTES WITH RESPECT TO BODY WEIGHT, Na^+” value is reported as 2.55 mEq/kg in the data set on rat [2] (10 mg/kg, 0-3 h); 2.71 mEq/kg in the data set on rat [2] (10 mg/kg, 0-6 h); 0.16 mEq/kg in the data set with rat [2] (10 mg/kg, 3-6 h); 2.03 mEq/kg with rat [2] (head prints 10 mg/kg, 0-3 h); 2.17 mEq/kg with rat [2] (head prints 10 mg/kg, 0-6 h); 0.14 mEq/kg in the data set with rat [2] (head prints 10 mg/kg, 3-6 h).

Source of the values: patent publication EP0164635A2, “Imidazothiazolemethylene-acetohydrazide derivatives, preparation thereof and pharmaceutical composition having diuretic activity” (MEDIOLANUM FARMACEUTICI s.r.l., priority 1984, dated 1985).
